This is an account of results in article PMC10224329, “Design, Synthesis, and Antiproliferative Activity of Benzopyran-4-One-Isoxazole Hybrid Compounds” (Molecules, 2023).

Series [1] concerns human ovarian adenocarcinoma (SKOV-3) cell lines. The series is described as follows: MTS cell viability assay. The class given is cell-based. Conditions: SK-OV-3, conjugates at 25 μM, 72 h, read-out: Inhibition of Cancer Cell Lines SKOV-3. How it is done:
(§1) All the 14 hybrid compounds synthesized via Scheme 1, along with the intermediates and starting compounds, were tested in vitro for their cytotoxicity against a panel of 6 human cancer cell lines. This panel involved human leukemia carcinoma (CCRF-CEM), human ovarian adenocarcinoma (SKOV-3), human breast tumor (MDA-MB-231), human prostate cancer (PC-3), androgen-independent human prostate cancer (DU-145), and human renal carcinoma (iSLK) cell lines. The compounds were tested at a concentration of 25 μM for incubation periods of 24 and 72 h. Standard anticancer drug doxorubicin at a concentration of 5 μM and DMSO were used as controls in all the cell assays. The antiproliferative profile of benzopyran-4-one-isoxazole conjugates is shown in Figure 2 (cf. Supplementary Materials for the data obtained for intermediates and starting materials Figure S28.1–S28.6, page no. 71–76).
(§2) Cell viability assays were performed using the MTS protocol. The in vitro cytotoxicity of the conjugates was evaluated using six human cancer cell lines, one human normal kidney cell line, and one mammalian normal kidney cell line, which included human leukemia carcinoma cell lines (CCRF-CEM), human ovarian adenocarcinoma cell lines (SKOV-3), human breast tumor cell lines (MDA-MB-231), human prostate cancer cell lines (PC-3), androgen-independent human prostate cancer cell lines (DU-145), human renal carcinoma (iSLK), human embryonic kidney cell lines (HEK-293), and normal mammalian kidney cell line (LLCPK) to determine the toxicity of the synthesized conjugates. CCRF-CEM cells were seeded at 50,000 cells in 0.1 mL per well in 96-well plates, and in the case of SKOV-3, MDA-MB-231, PC-3, DU-145, HEK-293, and LLCPK cell lines, the cells were seeded at 5000 cells in 0.1 mL per well in 96-well plates. The CCRF-CEM cells were seeded in RPMI-1640 media containing 2mM L-glutamine, 1.5 g/L sodium bicarbonate, supplemented with fetal bovine serum (FBS) 10% media, SKOV-3, MDA-MB-231, and LLCPK cells were seeded in MEME media with Earle’s salts and sodium bicarbonate, without L-glutamine, supplemented with fetal bovine serum (FBS) 10%, PC-3 cells were seeded in DMEM:F-12 containing 1:1 mixture with L-glutamine with HEPES, supplemented with fetal bovine serum (FBS) 10%, and DU-145 and HEK-293 cells were seeded in DMEM containing 4500 mg/L glucose, L-glutamine, and sodium bicarbonate, without sodium pyruvate, supplemented with FBS (10%), 24 h prior to the experiment. The compounds at a final concentration of 25 µM (higher concentration stock solution prepared in DMSO) were added to each well in triplicate and incubated for 24 and 72 h at 37 °C in a humidified atmosphere (95% air and 5% CO2). The cell viability was then determined by measuring the absorbance of the formazan product at 490 nm using a microplate reader using a SpectraMax M2 microplate spectrophotometer, Molecular Devices, San Jose, CA, USA. The percentage of cell survival was calculated as [(OD value of cells treated with the test mixture of compounds) − (OD value of culture medium)]/[(OD value of control cells) − (OD value of culture medium)] × 100%. IC50 values of compounds were calculated using non-linear regression analysis in GraphPad Prism (Boston, MA, USA).

The subject of series [2] is human renal carcinoma (iSLK) cell lines. The series is described as follows: MTS cell viability assay. The class given is cell-based. To be noted: Homo sapiens; conjugates at 25 μM, 72 h; read-out: Inhibition of Cancer Cell Lines iSLK. On the procedure: as §1, §2
A general note: Formazan colour is commonly taken as a measure of viable cells.

Series [3] deals with androgen-independent human prostate cancer (DU-145) cell lines. The series is described as follows: MTS cell viability assay. The class given is cell-based. On the procedure:
as §1, §2

For series [4], the system named is human leukemia carcinoma (CCRF-CEM) cell lines. The series is described as follows: MTS cell viability assay. Format: cell-based. To be noted: Homo sapiens, CCRF-CEM. On the procedure:
as §1, §2

Series [5] relates to human prostate cancer (PC-3) cell lines. The series is described as follows: MTS cell viability assay. Format: cell-based. On the procedure: as §1, §2
Series [6] can be described thus: Proteolytic stability in human serum (HPLC). The class given is in vitro ADME. To be noted: 37 °C. On the procedure: These compounds were further explored towards degradation by proteolytic enzymes towards degradation. Compound 5a was investigated for proteolytic stability in the presence of human serum. It was incubated with human serum at 37 °C, and aliquots of the reaction mixture were analyzed via HPLC at different time points up to 2 h. The concentration of Compound 5a was measured by integrating the area under the curve (AUC) and correspondingly calculated from the standard curve of 5a at different concentrations (cf. Supplementary Materials, page no. 81–82).
The HPLC chromatogram of serum incubated with compound 5a for 80 min was illustrated in Figure 5. […]
HPLC analysis was carried out to evaluate the proteolytic stability of selected conjugate 5a in the presence of human serum. First, different concentrations of Compound 5a were analyzed using the analytical HPLC, and a standard curve was plotted for the different concentrations of Compound 5a versus the area under the curve. […] The initial time was recorded, and 100 μL aliquots of the reaction mixture were removed and added to methanol (200 μL) for precipitation of serum proteins in human serum. […] A linear gradient from 10% to 100% acetonitrile/water in 65 min with a flow rate of 1.0 mL/min was used, and the absorbance of the eluting peaks was detected at 254 nm. […]

Setting [7] is: average of three independent tests in triplicate.

SMILES strings stand for the structures.

In general, inhibition refers to the relative decrease from the control value, in per cent. One may read the IC50 as the midpoint of a concentration-inhibition curve. A higher IC50 goes with weaker potency. The term half-life denotes how long it takes for the measured level to halve. For `Cc1noc(C)c1C(=O)OCc1coc2ccccc2c1=O` [Compound 5a, (4-Oxo-4H-1-benzopyran-3-yl)methyl 3,5-dimethylisoxazole-4-carboxylate], the inhibition at 25 µM came to 69% in series [1]; 44% in series [2]; 73% in series [3] (conjugates at 25 μM, 72 h); 81% in series [4] (conjugates at 25 μM, 72 h, read-out: Inhibition of Cancer Cell Lines CCRF-CEM); 70% in series [5] (conjugates at 25 μM, 72 h). In addition, the IC50 in series [3] (setting [7]) is 15.3 µM; in series [4] (setting [7]) it was 11.6 µM; in series [5] (PC3, average of three independent tests in triplicate), 17.8 µM. Also, the “degradation on incubation with human serum” value in series [6] (after 2 h of incubation with human serum) is reported as “completely degraded”. This molecule yielded a half-life at 50 µM in series [6] (human, human serum (25% v/v in RPMI media), human serum) of roughly 13.6 min.
